Data: paper PMC4786998 (Journal of Hematology & Oncology, 2016)
Where two headings read alike, the source gives them in different places.

Assays:
[1] = Phase I safety/tolerability (adverse events, DLT, MTD) in patients with advanced solid tumors
Protocol: The study was divided into two parts: dose escalation and dose expansion. Dose escalation used a traditional 3 + 3 dose-escalation design. […] The first patient in each dose-escalation cohort was evaluated for dose-limiting toxicities (DLTs) in cycle 1, day 4. If no DLTs were reported by the investigator, the remaining patients in the cohort were enrolled. […] The protocol allowed that and subsequent doses to be expanded to enroll an additional three patients who were known to have tumors tested positive for ALK abnormalities once safety was established in the first three subjects for that cohort.

L1196M ALK kinase domain = conditions: cited from earlier work
[2] = test system: panel of 86 tyrosine kinases; conditions: 1 μmol/L; cited from earlier work
[3] = Plasma pharmacokinetics in phase I patients; format: in vivo, human; conditions: for AUC: read-out: AUC24
Protocol: On day 1, the following PK parameters were assessed for […]: area under the plasma concentration-time curve (AUC24), AUClast, maximum concentration observed (Cmax), and time of maximum concentration observed (tmax). On day 28, [NT], Cmax, Ctrough, tmax, CL/F, Vz/F, and t1⁄2, calculated based on the ratio of accumulation for AUC (day 28 AUCtau/day 1 AUC24) (Rac [AUC]), were assessed. Cumulative effects on steady-state […] plasma levels were assessed by comparing Ctrough on day 28 divided by Ctrough on days 8, 15, and 22. For continuous variables, descriptive statistics included the number of patients, mean (standard deviation), median, and range. For antitumor assessments, the number and percentage (95 % CI) of patients with CR, PR, SD, and PD were summarized. The overall best tumor response was also summarized. For the objective response rates, the exact confidence interval of response was calculated only for the dose-expansion cohort using the Clopper-Pearson method. For continuous PK parameters, the coefficient of variation was calculated. For Cmax and AUC, geometric mean was calculated. All data processing and analyses were performed using SAS® Version 9.1.3 or higher. The safety analysis set was defined as patients who received at least one […] dose. The PK analysis set was defined as patients who received at least one dose of […] and provided the values of drug concentrations for at least one time point.

[4] = target: wild-type ALK kinase domain; conditions: cited from earlier work
[5] = Electrocardiogram QTcF in phase I patients; conditions: 325-mg dose
Protocol: The safety and tolerability of […] were assessed by adverse events (AEs) (graded based on NCI-CTCAE v4.03), laboratory tests, vital signs, electrocardiograms, and clinical observations.

[6] = test system: wild-type ALK and EML4-ALK L1196M xenograft tumors; conditions: mice, subcutaneous and intracranial xenografts, compared with crizotinib; cited from earlier work
[7] = test system: crizotinib-resistant ALK-positive tumors; test: Antitumor response by RECIST v1.1 in the dose-expansion cohort; format: in vivo, human
Source text: Solid tumor assessment was based on Response Evaluation Criteria in Solid Tumors (RECIST) v1.1. For target lesions, complete response (CR) was defined as disappearance of all target lesions and pathologic lymph nodes with a reduction in short axis to <10 mm. Partial response (PR) was defined as a ≥30 % decrease in the sum of diameters of the target lesions, taking as reference the baseline sum of diameters. Progressive disease (PD) was defined as a ≥20 % increase in the sum of diameters from the smallest sum on the study and the sum of diameters to be ≥5 mm from the smallest sum on study. Stable disease (SD) was defined as neither PR nor PD.
For patients in the dose-expansion cohort with evaluable tumor diameter, the best tumor reduction was calculated as the decrease from baseline in the sum of the target lesions.
For continuous variables, descriptive statistics included the number of patients, mean (standard deviation), median, and range. For antitumor assessments, the number and percentage (95 % CI) of patients with CR, PR, SD, and PD were summarized. The overall best tumor response was also summarized. For the objective response rates, the exact confidence interval of response was calculated only for the dose-expansion cohort using the Clopper–Pearson method. For continuous PK parameters, the coefficient of variation was calculated. For Cmax and AUC, geometric mean was calculated. All data processing and analyses were performed using SAS® Version 9.1.3 or higher.

[8] = human, plasma, oral, 25 mg, cycle 1, day 1, 25 mg once daily, dose-escalation cohort, n = 4, mean (standard deviation)
[9] = human, plasma, oral, 25 mg, cycle 1, day 28, 25 mg once daily, dose-escalation cohort, n = 3, mean (standard deviation)
[10] = human, plasma, oral, 50 mg, cycle 1, day 1, 50 mg once daily, dose-escalation cohort, n = 3, mean (standard deviation)
[11] = human, plasma, oral, 50 mg, cycle 1, day 28, 50 mg once daily, dose-escalation cohort, n = 3, mean (standard deviation)
[12] = human, plasma, oral, 75 mg, cycle 1, day 1, 75 mg once daily, dose-escalation cohort, n = 3, mean (standard deviation)
[13] = human, plasma, oral, 75 mg, cycle 1, day 28, 75 mg once daily, dose-escalation cohort, n = 3, mean (standard deviation)
[14] = human, plasma, oral, 125 mg, cycle 1, day 1, 125 mg once daily, dose-escalation cohort, n = 4, mean (standard deviation)
[15] = human, plasma, oral, 125 mg, cycle 1, day 28, 125 mg once daily, dose-escalation cohort, n = 1
[16] = human, plasma, oral, 200 mg once daily, cycle 1, day 28, 200 mg once daily, dose-escalation cohort, n = 3, mean (standard deviation)
[17] = human, plasma, oral, 200 mg, cycle 1, day 1, 200 mg once daily, dose-escalation cohort, n = 4, mean (standard deviation)
[18] = human, plasma, oral, 325 mg once daily, cycle 1, day 28, 325 mg once daily, dose-escalation cohort, n = 3, mean (standard deviation)
[19] = human, plasma, oral, 325 mg, cycle 1, day 1, 325 mg once daily, dose-escalation cohort, n = 3, mean (standard deviation)
[20] = human, plasma, oral, 800 mg, cycle 1, day 1, 800 mg once daily, dose-escalation cohort, n = 3, mean (standard deviation)
[21] = human, plasma, oral, 800 mg, cycle 1, day 28, 800 mg once daily, dose-escalation cohort, n = 1
[22] = expansion cohort, 525 mg, n = 16

## COc1cc(N2CCC(N3CCN(C)CC3)CC2)ccc1Nc1ncnc(Nc2ccccc2S(=O)(=O)C(C)C)n1 [ASP3026]
[1]; all due to PD, not related to the study drug
  deaths on study: three
[1]; human, in vivo
  changes in clinical laboratory parameters or vital signs over time: no meaningful changes
  treatment-related adverse event: fatigue: 35%
  treatment-related adverse event: nausea: 38%
  treatment-related adverse event: vomiting: 35%
[1]; human, in vivo, 28 days
  dose-limiting toxicities observed: Grade 3 rash and elevated transaminase concentrations
L1196M ALK kinase domain
  IC50: 32 nM
[2]
  number of tyrosine kinases inhibited by more than 50 %: 11
[3]; human, in vivo
  slope estimate (95 % CI) of dose-normalized AUClast versus dose: 0.090 (−0.097, 0.277)
  slope estimate (95 % CI) of dose-normalized Cmax versus dose: 0.170 (−0.018, 0.358)
  t ½: 24.9 (12.7) h
  time to steady-state plasma concentrations: ≤ 8 days
[3]; human, in vivo, accumulation half-life, mean (standard deviation)
  half-life: 25 h
[3]; human, in vivo, half-life, range
  half-life: 22 to 85 h
[3]; human, in vivo, median half-life
  half-life: 35 h
[3]; human, in vivo, po, tmax
  Tmax: ~3 h
[3]; human, in vivo, t max
  Tmax: 4 h
[3]; human, in vivo, t ½
  half-life: 27.3 h
[3]; [8]
  Cmax: 32 ng/mL
  AUC: 378 ng·h/mL
[3]; human, plasma, oral, 25 mg, cycle 1, day 1, 25 mg once daily, dose-escalation cohort, n = 4, median (range), read-out: t max
  Tmax: 3 h
[3]; [9]
  Cmax: 68.4 ng/mL
  AUC: 1040 ng·h/mL
[3]; human, plasma, oral, 25 mg, cycle 1, day 28, 25 mg once daily, dose-escalation cohort, n = 3, mean (standard deviation), calculated from accumulation ratio, read-out: t ½ (converted)
  half-life: 36.6 h
[3]; human, plasma, oral, 25 mg, cycle 1, day 28, 25 mg once daily, dose-escalation cohort, n = 3, median (range), read-out: t max
  Tmax: 3 h
[3]; [10]
  Cmax: 99.7 ng/mL
  AUC: 846 ng·h/mL
[3]; human, plasma, oral, 50 mg, cycle 1, day 1, 50 mg once daily, dose-escalation cohort, n = 3, median (range), read-out: t max
  Tmax: 3 h
[3]; [11]
  Cmax: 143 ng/mL
  AUC: 2110 ng·h/mL
[3]; human, plasma, oral, 50 mg, cycle 1, day 28, 50 mg once daily, dose-escalation cohort, n = 3, mean (standard deviation), calculated from accumulation ratio, read-out: t ½ (converted)
  half-life: 35.2 h
[3]; human, plasma, oral, 50 mg, cycle 1, day 28, 50 mg once daily, dose-escalation cohort, n = 3, median (range), read-out: t max
  Tmax: 3 h
[3]; [12]
  Cmax: 87.6 ng/mL
  AUC: 1160 ng·h/mL
[3]; human, plasma, oral, 75 mg, cycle 1, day 1, 75 mg once daily, dose-escalation cohort, n = 3, median (range), read-out: t max
  Tmax: 8.2 h
[3]; [13]
  Cmax: 352 ng/mL
  AUC: 5630 ng·h/mL
[3]; human, plasma, oral, 75 mg, cycle 1, day 28, 75 mg once daily, dose-escalation cohort, n = 3, mean (standard deviation), calculated from accumulation ratio, read-out: t ½ (converted)
  half-life: 84.7 h
[3]; human, plasma, oral, 75 mg, cycle 1, day 28, 75 mg once daily, dose-escalation cohort, n = 3, median (range), read-out: t max
  Tmax: 3 h
[3]; [14]
  Cmax: 262 ng/mL
  AUC: 3000 ng·h/mL
[3]; human, plasma, oral, 125 mg, cycle 1, day 1, 125 mg once daily, dose-escalation cohort, n = 4, median (range), read-out: t max
  Tmax: 5 h
[3]; [15]
  Cmax: 668 ng/mL
  AUC: 8970 ng·h/mL
[3]; human, plasma, oral, 125 mg, cycle 1, day 28, 125 mg once daily, dose-escalation cohort, n = 1, calculated from accumulation ratio, read-out: t ½ (converted)
  half-life: 36.7 h
[3]; human, plasma, oral, 125 mg, cycle 1, day 28, 125 mg once daily, dose-escalation cohort, n = 1, read-out: t max
  Tmax: 2.1 h
[3]; [16]
  Cmax: 682 ng/mL
  AUC: 7620 ng·h/mL
[3]; human, plasma, oral, 200 mg once daily, cycle 1, day 28, 200 mg once daily, dose-escalation cohort, n = 3, mean (standard deviation), calculated from accumulation ratio, read-out: t ½ (converted)
  half-life: 21.9 h
[3]; human, plasma, oral, 200 mg once daily, cycle 1, day 28, 200 mg once daily, dose-escalation cohort, n = 3, median (range), read-out: t max
  Tmax: 3 h
[3]; [17]
  Cmax: 490 ng/mL
  AUC: 4580 ng·h/mL
[3]; human, plasma, oral, 200 mg, cycle 1, day 1, 200 mg once daily, dose-escalation cohort, n = 4, median (range), read-out: t max
  Tmax: 2.5 h
[3]; [18]
  Cmax: 1160 ng/mL
  AUC: 18800 ng·h/mL
[3]; human, plasma, oral, 325 mg once daily, cycle 1, day 28, 325 mg once daily, dose-escalation cohort, n = 3, mean (standard deviation), calculated from accumulation ratio, read-out: t ½ (converted)
  half-life: 26.3 h
[3]; human, plasma, oral, 325 mg once daily, cycle 1, day 28, 325 mg once daily, dose-escalation cohort, n = 3, median (range), read-out: t max
  Tmax: 4 h
[3]; [19]
  Cmax: 586 ng/mL
  AUC: 7950 ng·h/mL
[3]; human, plasma, oral, 325 mg, cycle 1, day 1, 325 mg once daily, dose-escalation cohort, n = 3, median (range), read-out: t max
  Tmax: 3 h
[3]; [20]
  Cmax: 1630 ng/mL
  AUC: 21800 ng·h/mL
[3]; human, plasma, oral, 800 mg, cycle 1, day 1, 800 mg once daily, dose-escalation cohort, n = 3, median (range), read-out: t max
  Tmax: 3 h
[3]; [21]
  Cmax: 4850 ng/mL
  AUC: 78100 ng·h/mL
[3]; human, plasma, oral, 800 mg, cycle 1, day 28, 800 mg once daily, dose-escalation cohort, n = 1, calculated from accumulation ratio, read-out: t ½ (converted)
  half-life: 37.9 h
[3]; human, plasma, oral, 800 mg, cycle 1, day 28, 800 mg once daily, dose-escalation cohort, n = 1, read-out: t max
  Tmax: 4 h
[3]; multiple dosing (day 28), 25- to 800-mg dose range
  linearity and dose proportionality of exposure (Cmax and AUClast): both linear and dose-proportional exposure
[4]
  IC50: 10 nM
[5]
  QTcF, mean (standard deviation) maximal increase: 47.0 (10.7) ms
[6]
  antitumor activity in xenograft tumors: potent antitumor activity
[7]; 525 mg, 16 crizotinib-resistant ALK-positive patients
  best overall response: stable disease rate: 44%
[7]; 525 mg, 16 crizotinib-resistant ALK-positive patients (15 NSCLC, 1 neuroblastoma)
  best overall response: partial response rate: 50%
[7]; 525 mg, 16 crizotinib-resistant ALK-positive patients, 95 % CI 25–75 %
  objective (overall) response rate (CR + PR): 50%
[7]; 525 mg, restricted to ALK-positive NSCLC patients, 6/15
  stable disease rate: 40%
[7]; 525 mg, restricted to ALK-positive NSCLC patients, 8/15
  partial response rate: 53%
[7]; ALK-positive patients, 95 % CI 4–9
  median progression-free survival: 6 months
[7]; dose-expansion cohort, 525 mg
  duration of response, range: 27 to 338 days
[7]; [22]
  Best overall response: complete response: 0 n (%)
  Best overall response: partial response: 8 (50) n (%)
  Best overall response: progressive disease: 0 n (%)
  Best overall response: stable disease: 7 (44) n (%)
  Best overall response: unable to evaluate: 1 (6) n (%)
[7]; expansion cohort, 525 mg, n = 16, 95 % CI 25–75 %
  Objective response (complete response + partial response): 8 (50) n (%)
